Patent US20250353864A1, “INDAZOLE CONTAINING MACROCYCLES AND THEIR USE” (BLOSSOMHILL THERAPEUTICS, INC., priority 2022, published 2025)

Columns and labels:
Assay type in all cases: biochemical
EGFR (D770_N771insNPG) = EGFR (D770_N771insNPG) (Homo sapiens (Human), UniProt P00533, INS770NPG); test: HotSpot radiometric kinase assay, EGFR (D770_N771insNPG); details: 10 μM ATP, read-out: EGFR (Δ770_N771insNPG) IC50
Outline: (§1)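 IC50 values derive from curve fits of 33P incorporation measured by P81 filter binding. ATP was 10 μM final; incubation lasted 120 min at room temperature after ~20 min compound preincubation.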

CLK2 = CLK2 (Homo sapiens (Human), UniProt P49760); test: Inhibition of CLK2 kinase activity evaluated at Nanosyn (ADP-Glo); details: ADP-Glo luminescence
Chain of CLK2 (P49760 whole entry, canonical isoform): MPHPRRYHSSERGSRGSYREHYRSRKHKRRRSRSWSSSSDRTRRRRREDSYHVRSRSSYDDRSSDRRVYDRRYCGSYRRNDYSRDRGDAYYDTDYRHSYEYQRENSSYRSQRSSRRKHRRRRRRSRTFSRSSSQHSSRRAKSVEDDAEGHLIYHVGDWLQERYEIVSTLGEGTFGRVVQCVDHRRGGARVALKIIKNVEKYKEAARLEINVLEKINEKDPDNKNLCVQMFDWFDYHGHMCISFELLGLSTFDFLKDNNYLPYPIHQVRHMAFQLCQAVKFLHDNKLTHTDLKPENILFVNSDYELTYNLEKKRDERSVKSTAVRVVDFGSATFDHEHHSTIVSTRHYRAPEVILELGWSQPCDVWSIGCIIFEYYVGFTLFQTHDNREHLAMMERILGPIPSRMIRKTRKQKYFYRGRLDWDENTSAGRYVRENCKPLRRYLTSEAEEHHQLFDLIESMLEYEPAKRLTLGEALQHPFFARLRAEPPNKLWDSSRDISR
Outline: (§2)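 ADP-Glo luminescence (40 min depletion, 10 min detection) quantifies ADP from ATP-initiated phosphorylation of substrate by each CLK isoform in HEPES pH 7.5 buffer, 1% DMSO, assay-specific incubation. %-inhibition calculated against uninhibited and enzyme-free controls.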

[1] = biological target: EGFR L858R/T790M/C797S mutant (Homo sapiens (Human), UniProt P00533, C797S/L858R/T790M); test: HotSpot radiometric kinase assay, EGFR L858R/T790M/C797S mutant; details: 10 μM ATP
Chain of EGFR L858R/T790M/C797S mutant (P00533 25-1210 T790M/C797S/L858R): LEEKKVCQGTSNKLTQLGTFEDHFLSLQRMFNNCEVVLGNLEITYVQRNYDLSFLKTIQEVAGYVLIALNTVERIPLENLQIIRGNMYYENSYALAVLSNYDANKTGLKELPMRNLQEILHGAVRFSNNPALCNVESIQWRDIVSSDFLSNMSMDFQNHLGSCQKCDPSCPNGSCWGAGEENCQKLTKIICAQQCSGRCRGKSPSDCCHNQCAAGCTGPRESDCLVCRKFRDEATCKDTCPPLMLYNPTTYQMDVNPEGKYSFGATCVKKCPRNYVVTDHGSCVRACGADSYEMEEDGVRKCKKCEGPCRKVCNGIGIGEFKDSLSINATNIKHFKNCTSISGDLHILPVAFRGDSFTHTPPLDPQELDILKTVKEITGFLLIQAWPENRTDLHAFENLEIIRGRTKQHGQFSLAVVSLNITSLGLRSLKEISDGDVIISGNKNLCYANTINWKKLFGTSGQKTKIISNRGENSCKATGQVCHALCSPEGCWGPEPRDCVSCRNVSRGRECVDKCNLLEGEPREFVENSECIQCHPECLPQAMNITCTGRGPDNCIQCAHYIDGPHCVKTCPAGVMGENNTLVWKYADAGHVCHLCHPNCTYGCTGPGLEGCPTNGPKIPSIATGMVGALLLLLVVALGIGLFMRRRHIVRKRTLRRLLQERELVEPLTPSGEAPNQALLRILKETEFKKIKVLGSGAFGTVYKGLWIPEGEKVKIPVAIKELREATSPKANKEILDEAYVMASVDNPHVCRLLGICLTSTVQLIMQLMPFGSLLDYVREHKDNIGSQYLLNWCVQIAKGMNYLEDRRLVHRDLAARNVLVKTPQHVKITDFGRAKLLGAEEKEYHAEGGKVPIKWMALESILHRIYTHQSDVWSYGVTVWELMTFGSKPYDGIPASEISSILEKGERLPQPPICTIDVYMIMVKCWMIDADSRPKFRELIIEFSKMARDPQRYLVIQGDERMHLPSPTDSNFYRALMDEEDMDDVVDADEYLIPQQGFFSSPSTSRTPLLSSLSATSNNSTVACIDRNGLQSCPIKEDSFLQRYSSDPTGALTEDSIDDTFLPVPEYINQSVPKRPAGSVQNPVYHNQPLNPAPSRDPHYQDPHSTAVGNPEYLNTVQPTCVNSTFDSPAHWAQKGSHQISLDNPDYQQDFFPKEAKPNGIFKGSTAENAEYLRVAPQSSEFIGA
Outline: as §1

EGFR WT = EGFR WT (Homo sapiens (Human), UniProt P00533); test: HotSpot radiometric kinase assay (Reaction Biology), EGFR WT; details: 10 μM ATP
Outline: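 Compounds were preincubated ~20 min with kinase/substrate in pH 7.5 Hepes buffer (MgCl2, EGTA, Brij35, BSA, Na3VO4, DTT, 1% DMSO), then ATP plus 33P-ATP was added to 10 μM final. After 120 min at room temperature, reactions were spotted on P81 filters and washed; IC50 values came from curve fits.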

EGFR L858R/T790M mutant = EGFR L858R/T790M mutant (Homo sapiens (Human), UniProt P00533, L858R/T790M); test: HotSpot radiometric kinase assay, EGFR L858R/T790M mutant; details: 10 μM ATP
Chain of EGFR L858R/T790M mutant (P00533 25-1210 T790M/L858R): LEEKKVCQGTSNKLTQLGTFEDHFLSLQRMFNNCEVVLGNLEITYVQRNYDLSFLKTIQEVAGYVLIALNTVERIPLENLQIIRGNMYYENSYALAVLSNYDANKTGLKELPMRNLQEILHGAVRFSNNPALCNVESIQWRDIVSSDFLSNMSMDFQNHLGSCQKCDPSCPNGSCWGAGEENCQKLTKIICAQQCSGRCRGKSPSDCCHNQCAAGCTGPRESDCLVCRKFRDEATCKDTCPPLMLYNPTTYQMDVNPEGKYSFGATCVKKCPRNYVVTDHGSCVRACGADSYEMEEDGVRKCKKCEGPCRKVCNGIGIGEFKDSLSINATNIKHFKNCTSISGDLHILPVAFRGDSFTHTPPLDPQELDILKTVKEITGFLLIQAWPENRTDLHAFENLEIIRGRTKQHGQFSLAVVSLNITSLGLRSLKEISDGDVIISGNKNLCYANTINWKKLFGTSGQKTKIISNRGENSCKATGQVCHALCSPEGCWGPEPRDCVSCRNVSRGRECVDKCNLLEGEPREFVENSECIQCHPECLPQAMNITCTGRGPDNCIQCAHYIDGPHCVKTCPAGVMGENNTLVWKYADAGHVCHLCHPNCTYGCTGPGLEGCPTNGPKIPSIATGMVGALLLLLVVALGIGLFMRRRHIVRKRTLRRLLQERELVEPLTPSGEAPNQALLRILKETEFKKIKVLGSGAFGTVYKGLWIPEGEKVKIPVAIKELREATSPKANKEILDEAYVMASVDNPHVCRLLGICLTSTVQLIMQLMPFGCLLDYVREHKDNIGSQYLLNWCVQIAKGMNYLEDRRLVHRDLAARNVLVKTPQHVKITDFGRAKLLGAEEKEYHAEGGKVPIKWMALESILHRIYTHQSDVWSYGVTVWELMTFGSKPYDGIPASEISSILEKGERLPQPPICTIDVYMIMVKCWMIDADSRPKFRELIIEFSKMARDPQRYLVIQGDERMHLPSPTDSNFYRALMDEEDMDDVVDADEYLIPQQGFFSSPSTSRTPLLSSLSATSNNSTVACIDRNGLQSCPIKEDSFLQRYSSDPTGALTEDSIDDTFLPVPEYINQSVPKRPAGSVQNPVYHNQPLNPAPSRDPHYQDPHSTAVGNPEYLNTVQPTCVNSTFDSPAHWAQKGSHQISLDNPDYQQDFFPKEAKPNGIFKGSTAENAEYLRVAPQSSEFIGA
Outline: as §1

CLK4 = CLK4 (Homo sapiens (Human), UniProt Q9HAZ1); test: Inhibition of CLK4 kinase activity evaluated at Nanosyn (ADP-Glo); details: ADP-Glo luminescence
Outline: as §2

[2] = biological target: EGFR Δ746-750/C797S mutant (Homo sapiens (Human), UniProt P00533, C797S/DEL746-750); test: HotSpot radiometric kinase assay, EGFR Δ746-750/C797S mutant; details: 10 μM ATP
Chain of EGFR Δ746-750/C797S mutant (P00533 other isoform, or with tags, fused parts or gaps C797S/del 1-668/del 746-750 limits assumed): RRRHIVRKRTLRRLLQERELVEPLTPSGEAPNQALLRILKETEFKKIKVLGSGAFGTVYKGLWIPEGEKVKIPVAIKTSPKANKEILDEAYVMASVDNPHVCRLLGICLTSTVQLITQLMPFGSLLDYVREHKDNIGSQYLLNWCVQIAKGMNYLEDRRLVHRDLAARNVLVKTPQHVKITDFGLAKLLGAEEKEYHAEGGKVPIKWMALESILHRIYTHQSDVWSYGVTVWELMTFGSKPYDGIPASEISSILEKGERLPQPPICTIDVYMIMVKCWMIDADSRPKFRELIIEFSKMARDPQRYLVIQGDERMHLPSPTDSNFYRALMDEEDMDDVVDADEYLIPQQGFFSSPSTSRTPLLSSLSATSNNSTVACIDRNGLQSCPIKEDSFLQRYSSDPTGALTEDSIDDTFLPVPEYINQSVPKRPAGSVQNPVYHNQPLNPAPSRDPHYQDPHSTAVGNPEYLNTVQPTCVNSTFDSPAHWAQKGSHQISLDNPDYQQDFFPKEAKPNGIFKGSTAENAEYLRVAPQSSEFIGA
Outline: as §1

CLK1 = CLK1 (Homo sapiens (Human), UniProt P49759); test: Inhibition of CLK1 kinase activity evaluated at Nanosyn (ADP-Glo); details: ADP-Glo luminescence
Chain of CLK1 (P49759 whole entry): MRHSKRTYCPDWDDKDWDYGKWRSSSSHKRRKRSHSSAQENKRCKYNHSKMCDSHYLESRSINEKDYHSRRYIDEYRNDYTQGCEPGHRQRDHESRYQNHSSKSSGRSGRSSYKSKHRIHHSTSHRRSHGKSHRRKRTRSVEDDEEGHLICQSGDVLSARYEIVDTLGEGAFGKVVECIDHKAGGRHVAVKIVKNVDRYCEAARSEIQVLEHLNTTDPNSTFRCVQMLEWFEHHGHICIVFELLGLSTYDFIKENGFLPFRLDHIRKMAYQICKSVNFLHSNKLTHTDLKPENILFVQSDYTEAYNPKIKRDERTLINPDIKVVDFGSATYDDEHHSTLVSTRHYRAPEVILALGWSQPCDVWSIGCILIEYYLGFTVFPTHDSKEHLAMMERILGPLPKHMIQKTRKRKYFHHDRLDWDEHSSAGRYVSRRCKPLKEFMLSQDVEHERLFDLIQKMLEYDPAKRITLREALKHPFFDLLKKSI
Outline: as §2

EGFR L858R mutant = EGFR L858R mutant (Homo sapiens (Human), UniProt P00533, L858R); test: HotSpot radiometric kinase assay, EGFR L858R mutant; details: 10 μM ATP
Outline: as §1

EGFR Δ746-750 mutant = EGFR Δ746-750 mutant (Homo sapiens (Human), UniProt P00533, DEL746-750); test: HotSpot radiometric kinase assay, EGFR Δ746-750 mutant; details: 10 μM ATP
Chain of EGFR Δ746-750 mutant (P00533 other isoform, or with tags, fused parts or gaps del 1-668/del 746-750 limits assumed): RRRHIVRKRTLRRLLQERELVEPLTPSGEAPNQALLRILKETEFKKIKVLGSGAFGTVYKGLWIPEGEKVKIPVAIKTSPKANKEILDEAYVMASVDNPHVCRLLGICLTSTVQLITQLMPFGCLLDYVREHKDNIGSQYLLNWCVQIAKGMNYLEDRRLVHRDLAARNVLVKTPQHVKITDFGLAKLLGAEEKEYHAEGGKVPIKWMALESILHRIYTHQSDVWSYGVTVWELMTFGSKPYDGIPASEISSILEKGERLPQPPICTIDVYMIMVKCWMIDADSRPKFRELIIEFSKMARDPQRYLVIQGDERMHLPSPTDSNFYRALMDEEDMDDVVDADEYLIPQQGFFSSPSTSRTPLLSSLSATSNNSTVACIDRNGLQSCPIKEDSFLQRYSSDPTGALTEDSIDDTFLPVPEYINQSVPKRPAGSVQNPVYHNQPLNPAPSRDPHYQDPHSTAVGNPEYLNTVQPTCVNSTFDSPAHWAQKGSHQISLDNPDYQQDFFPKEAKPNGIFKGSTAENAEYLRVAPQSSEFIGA
Outline: as §1

CLK3 = CLK3 (Homo sapiens (Human), UniProt P49761); test: Inhibition of CLK3 kinase activity evaluated at Nanosyn (ADP-Glo); details: ADP-Glo luminescence
Chain of CLK3 (P49761 whole entry): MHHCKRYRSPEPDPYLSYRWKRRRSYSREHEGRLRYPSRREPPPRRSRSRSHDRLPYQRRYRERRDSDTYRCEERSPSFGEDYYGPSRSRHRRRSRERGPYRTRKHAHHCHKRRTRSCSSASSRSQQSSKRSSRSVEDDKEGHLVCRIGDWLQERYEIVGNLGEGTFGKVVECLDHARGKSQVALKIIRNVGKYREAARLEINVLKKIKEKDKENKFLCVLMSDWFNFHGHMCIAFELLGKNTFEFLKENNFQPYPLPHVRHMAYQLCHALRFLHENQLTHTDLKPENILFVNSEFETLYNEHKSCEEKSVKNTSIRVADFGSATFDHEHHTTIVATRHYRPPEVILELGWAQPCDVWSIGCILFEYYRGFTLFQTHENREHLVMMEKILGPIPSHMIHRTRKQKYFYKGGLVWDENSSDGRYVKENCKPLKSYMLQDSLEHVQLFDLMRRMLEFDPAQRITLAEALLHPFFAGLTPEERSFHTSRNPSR
Outline: as §2

SMILES	IC50 (EGFR (D770_N771insNPG))	IC50 (CLK2)	IC50 [1]	IC50 (EGFR WT)	IC50 (EGFR L858R/T790M mutant)	IC50 (CLK4)	IC50 [2]	IC50 (CLK1)	IC50 (EGFR L858R mutant)	IC50 (EGFR Δ746-750 mutant)	IC50 (CLK3)
CC(C)c1noc2c1/C=C/c1n[nH]c3ccc(cc13)-c1cnn(C)c1O[C@@H](C)CN(C)C2 [Example 179, (10S,17E)-8,10,12-trimethyl-16-(propan-2-yl)-2,8,10,11,12,13-hexahydro-3,5-etheno[1,2]oxazolo[5,4-f]dipyrazolo[3,4-j:4′,3′-n][1,4]oxazacyclopentadecine]	> 1000 nM	9.57 nM	507 nM	> 1000 nM	1010 nM	1.66 nM	> 1000 nM	2.75 nM	> 1000 nM	> 1000 nM	1000 nM
C[C@H]1CN(C)Cc2c(c(O)nn2CCO)/C=C/c2n[nH]c3ccc(cc23)-c2cnn(C)c2O1 [Example 186, (10S,17E)-14-(2-hydroxyethyl)-8,10,12-trimethyl-2,10,11,12,13,14-hexahydro-8H-3,5-ethenotripyrazolo[3,4-f:3′,4′-j:4″,3″-n][1,4]oxazacyclopentadecin-16-ol]	59.1 nM	0.18 nM	0.46 nM	43.8 nM	1.48 nM	1 nM	3.06 nM	0.24 nM	14.6 nM	12.9 nM	126 nM
CCOc1nn(CCO)c2c1/C=C/c1n[nH]c3ccc(cc13)-c1cnn(C)c1O[C@H](C)CNC2 [Example 197, 2-[(10R,17E)-16-ethoxy-8,10-dimethyl-2,8,10,11,12,13-hexahydro-14H-3,5-ethenotripyrazolo[3,4-f:3′,4′-j:4″,3″- n][1,4]oxazacyclopentadecin-14-yl]ethan-1-ol]	217 nM	3.06 nM	2.18 nM	194 nM	4.58 nM	1.59 nM	29.8 nM	1.16 nM	95.2 nM	62 nM	78.6 nM
CCN1Cc2c(c(C)nn2C)/C=C/c2n[nH]c3ccc(cc23)-c2cnn(C)c2O[C@@H](C)C1 [Example 165, (10S,17E)-12-ethyl-8,10,14,16-tetramethyl-2,10,11,12,13,14-hexahydro-8H-3,5-ethenotripyrazolo[3,4-f:3′,4′-j:4″,3″-n][1,4]oxazacyclopentadecine]	19 nM	0.02 nM	0.44 nM	28.5 nM	0.47 nM	0.19 nM	2.33 nM	0.1 nM	6.08 nM	4.84 nM	72.4 nM
CCN1Cc2nn(C)c(C)c2/C=C/c2n[nH]c3ccc(cc23)-c2cnn(C)c2O[C@@H](C)C1 [Example 59, (10S,17E)-12-ethyl-8,10,15,16-tetramethyl-2,10,11,12,13,15-hexahydro-8H-3,5-ethenotripyrazolo[3,4-f:3′,4′-j:4″,3″-n][1,4]oxazacyclopentadecine]	127 nM	2.13 nM	1.02 nM	44.1 nM	0.7 nM	2.03 nM	2.42 nM	0.82 nM	7.63 nM	18.6 nM	541 nM
CC(C)Oc1nn(CCO)c2c1/C=C/c1n[nH]c3ccc(cc13)-c1cnn(C)c1O[C@H](C)CN(C(C)C)C2 [Example 193, 2-{(10R,17E)-8,10-dimethyl-12-(propan-2-yl)-16-[(propan-2-yl)oxy]-2,8,10,11,12,13-hexahydro-14H-3,5-ethenotripyrazolo[3,4-f:3′,4′-j:4″,3″-n][1,4]oxazacyclopentadecin-14-yl}ethan-1-ol]	77.3 nM	45.4 nM	1.05 nM	90.1 nM	2.42 nM	21 nM	5.92 nM	31.8 nM	36.6 nM	10.2 nM	1000 nM
CN1CCC(c2ccc3c(c2)O[C@@H]2CCN(CCOc4c(cnn4C)-c4ccc5[nH]nc(c5c4)/C=C/3)C2=O)CC1 [Example 112, (10R,16E)-3-methyl-13-(1-methylpiperidin-4-yl)-3,5,6,9,10,19-hexahydro-8H-20,22-etheno-7,10-methanodipyrazolo[3,4-i:4′,3′-m][1,8,5]benzodioxazacyclooctadecin-25-one]	1.12 nM	0.04 nM	0.98 nM	8.28 nM	0.21 nM	0.5 nM	2.75 nM	0.17 nM	1.31 nM	0.61 nM	0.19 nM
